Laboratory results published in US20230103704A1, “HUMAN ANTI-IN[…] FOR THE […] OF IN[…] ISSUES” (priority 2020, published 2023).
Values joined by “and” are separate entries in the source; they are usually repeats but may differ in a detail not shown here. Identical values can stand only once. “Also recorded” adds a separate entry of the source. Marks after values point to notes of the source that are not given here.

Tests used:
[1] = test system: PBMCs stimulated with beryllium; test: Case: inhaled Aviptadil in a patient with Chronic Beryllium Disease, PBMC proliferation and cytokines; assay type: in vivo, human; conditions: after 6 months of treatment
Text: A patient who was continuously exposed to beryllium at their workplace developed Chronic Beryllium Disease (CBD). This was diagnosed by tests performed on peripheral blood and bronchoalveolar lavage (BAL) mononuclear cells. […] A test called beryllium lymphocyte proliferation test (BeLPT) confirmed the CBD diagnosis. Due to the lack of available treatment options for CBD, the patient qualified for the Early Access Program treatment with inhaled Aviptadil. Therapy was initiated at a dose of 4×70 μg/ml per day dosage (280 μg per day with overnight break; nebulizer: M-neb-dose+, NEBU-TEC, Eisenfeld, Germany; mouthpiece; SK-211, NEBU-TEC, Eisenfeld, Germany). After 6 months of treatment, the proliferation rate of PBMCs stimulated with beryllium (0.1 mM) from the patient was inhibited by 100% by Aviptadil.

sarcoidosis of the lung = test: Case: inhaled Aviptadil in a patient with severe sarcoidosis of the lung (KSQ); assay type: in vivo, human; conditions: for King's College Sarcoidosis Questionnaire (KSQ) score: 280 μg per day inhaled
Description: A patient with severe sarcoidosis of the lung indicated for therapeutic treatment suffered from unproductive chronic cough, dyspnea on exertion and chronic fatigue. […] Therapy was initiated at a dose of 4×70 μg/ml per day dosage (280 μg per day with overnight break; nebulizer: M-neb-dose+, NEBU-TEC, Eisenfeld, Germany; mouthpiece; SK-211, NEBU-TEC, Eisenfeld, Germany). Therapeutic benefit was measured by the newly established and well validated quality of life questionnaire for sarcoidosis, the King's College Sarcoidosis Questionnaire (KSQ; Patel et al. (2013) Thorax 68: 57-65). Therein an increase in score by 5 over time indicates significant clinical improvement. The patient started treatment at a score of 66, improved after 3 months of treatment to score 71, and after 6 months of treatment to score 77, which is 11 points higher than at beginning of treatment with Aviptadil.

CoViD-19 = test: Individual curing attempts for CoViD-19 with Aviptadil, oxygen demand; assay type: in vivo, human
Description: Example 18: Individual Curing Attempts for the Therapy of CoViD-19 with Aviptadil 3×66 μg Daily Per Inhalationem (Oxygen Demand Via Oxygen Nasal Cannula in L Per Minute (l/min))

[2] = Aviptadil aerosol from M-neb dose+ MN-300/8 tested with COPLEY next generation impactor; assay type: physicochemical
Description: Using the M-neb® dose^+ mesh nebulizer MN-300/8 and the respective mouthpiece, Aviptadil has been tested with the COPLEY next generation impactor (NGI). The mass median aerodynamic diameter (MMD) of Aviptadil dissolved in 0.9% NaCl was 3.3-3.5 μm per emitted particle. The number of those particles <5 μm=85.70%, and the dose delivered at the mouthpiece was 90.2% of the tested dosages.
Aviptadil has been tested in 0.9% NaCl solution at different drug concentrations (35 μg/ml, 70 μg/ml, 140 μg/ml, 200 μg/ml, 250 μg/ml, 400 μg/ml).

[3] = test system: pulmonary arterial hypertension (PAH); test: Case: inhaled Aviptadil in a patient with severe pulmonary arterial hypertension; assay type: in vivo, human
Description: A patient with severe pulmonary arterial hypertension (PAH), associated with collagen vascular disease, presented with signs of right ventricular decompensation, with an initial pulmonary vascular resistance (PVR) of 1413 dyn s cm^−5. The patient was treated before with bosentan for 3 months. This therapy was discontinued due to increased liver enzymes. PAH-specific medication was changed to triple therapy comprising inhaled iloprost and systemic sildenafil and ambrisentan. The patient developed peripheral edema, right ventricular hypertrophy, right ventricular systolic pressure (RVSP) 97 mm Hg, TAPSE (tricuspid annular plane systolic excursion) 17 mm, 6 min walking test 290 m. A repeated prostanoid therapy was refused by the patient. Due to the lack of other treatment options, treatment with inhaled Aviptadil was initiated at a dose of 4×140 μg/ml per day (560 μg/day) with overnight break, droplet characteristics of a MMAD of 3.4 μm per emitted particle (nebulizer: M-neb-dose+, NEBU-TEC, Eisenfeld, Germany). 90% of the dose were delivered at the mouthpiece (SK-211, NEBU-TEC, Eisenfeld, Germany). Inhalation time per treatment was 12 minutes. […] 6 months later the 6 min walking test was increased to 340 m, 12 months later to 410 m. 3 years later an ongoing improvement was noted, with 6 min walking distances between 430-475 m and still persistent PAH, but good right ventricular function of TAPSE 22 mm. This dramatic improvement of the patient over time is attributed to the effect of inhaled Aviptadil.

ARDS = conditions: systemic administration, cited from earlier work
[4] = may be as low as; cited from earlier work
[5] = Side effects of inhaled vasoactive intestinal peptide in previous trials; assay type: in vivo, human
Patients with SARS-CoV-2 = test: Study of aviptadil inhalation versus placebo in CoViD-19 patients; assay type: in vivo, human; conditions: during treatment, 28 days inhalative
Text: A study examines the positive effect of aviptadil inhalation (dosage example 17) in CoViD-19 patients.
Patients with SARS-CoV-2 are randomized into two groups, one with 28 days aviptadil inhalative, one with 28 days placebo inhalative.

[6] = test system: CoViD-19 infected patients at risk for ARDS; conditions: human, in vivo
[7] = assay type: physicochemical
Description: Aviptadil can be obtained, e.g., from Bachem AG, Bubendorf, Switzerland, in GMP quality.
The experimental procedure was carried out pursuant to Ph. Eur. 2.9.44 (Preparations for Nebulisation: Characterisation). A cascade impactor (Next Generation Impactor (NGI), Copley Scientific Ltd., Nottingham, UK) was used to determine the respective percentage for each fraction of the nebulized particles.
The thus generated aerosol was delivered to the cascade impactor by means of a mouthpiece (SK-211, NEBU-TEC, Eisenfeld, Germany).
The nebulization chamber (yellow stamp, 250 μl liquid discharge) was filled. The puff profile configured at the breath simulator was chosen in such a way that a correct simulation of inhalation by means of the nebulizer was ensured. The corresponding time was recorded.
Single values obtained for each cascade were added. […] MMAD, FPF and FPM were calculated from the obtained values: […]

[8] = estimated values with 25 l/min Highflow with oxygen from 72 to 44%
[9] = oxygen nasal cannula, 3×66 μg daily, one table line per patient
[10] = oxygen nasal cannula, 3×66 μg daily, one table line per patient, listed as Aviptadil
[11] = 0.1 mg/ml in physiological saline

**Q.** What does the source list for `CC[C@H](C)[C@H](NC(=O)[C@H](CO)NC(=O)[C@H](CC(N)=O)NC(=O)[C@H](CC(C)C)NC(=O)[C@H](Cc1ccc(O)cc1)NC(=O)[C@H](CCCCN)NC(=O)[C@H](CCCCN)NC(=O)[C@@H](NC(=O)[C@H](C)NC(=O)[C@H](CCSC)NC(=O)[C@H](CCC(N)=O)NC(=O)[C@H](CCCCN)NC(=O)[C@H](CCCNC(=N)N)NC(=O)[C@H](CC(C)C)NC(=O)[C@H](CCCNC(=N)N)NC(=O)[C@@H](NC(=O)[C@H](Cc1ccc(O)cc1)NC(=O)[C@H](CC(N)=O)NC(=O)[C@H](CC(=O)O)NC(=O)[C@@H](NC(=O)[C@H](Cc1ccccc1)NC(=O)[C@@H](NC(=O)[C@H](C)NC(=O)[C@H](CC(=O)O)NC(=O)[C@H](CO)NC(=O)[C@@H](N)Cc1c[nH]cn1)C(C)C)[C@@H](C)O)[C@@H](C)O)C(C)C)C(=O)N[C@@H](CC(C)C)C(=O)N[C@@H](CC(N)=O)C(N)=O` [vasoactive intestinal peptide]?
**A.** production of cytokines TNF-alpha, IL-17 [1]: significantly diminished; King's College Sarcoidosis Questionnaire (KSQ) score (sarcoidosis of the lung; after 3 months, score 66 at start): 71; KSQ score higher than at beginning of treatment (sarcoidosis of the lung; after 6 months): 11 points; King's College Sarcoidosis Questionnaire (KSQ) score (sarcoidosis of the lung; after 6 months): 77; O2 Day 1 (CoViD-19; [8]): 15* l/min; O2 Day 2 (CoViD-19; [8]): 15* l/min; O2 Day 3 (CoViD-19; [8]): 14* l/min; O2 Day 4 (CoViD-19; [8]): 11* l/min; O2 Day 5 (CoViD-19; [8]): 6* l/min; O2 Day 6 (CoViD-19; [8]): 6* l/min; O2 Day 11 (CoViD-19; [9]): 6 L/min; O2 Day 12 (CoViD-19; [9]): 3.3 L/min; O2 Day 13 (CoViD-19; [9]): 2 L/min; O2 Day 14 (CoViD-19; [9]): 1.5 L/min; O2 Day 15 (CoViD-19; [9]): 1 L/min; O2 Day 16 (CoViD-19; [9]): 0.5 L/min; O2 Day 17 (CoViD-19; [9]): 0 L/min; O2 Day 1 (CoViD-19; [10]): 5 L/min and 3 L/min and 2 L/min and 1.5 L/min; O2 Day 2 (CoViD-19; [10]): 4 l/min and 3 l/min (2×) and 2 l/min; O2 Day 3 (CoViD-19; [10]): 6 l/min and 4 l/min and 3 l/min (2×) and 2 l/min; O2 Day 4 (CoViD-19; [10]): 5 l/min and 4 l/min and 2 l/min (3×); O2 Day 5 (CoViD-19; [10]): 4 l/min and 3 l/min and 1 l/min (2×) and 0 l/min; O2 Day 6 (CoViD-19; [10]): 3 l/min and 2 l/min (2×) and 0 l/min; O2 Day 7 (CoViD-19; [10]): 2 l/min (2×) and 1 l/min and 4 l/min; O2 Day 8 (CoViD-19; [10]): 0 l/min and 1 l/min (2×) and 5.5 l/min; O2 Day 9 (CoViD-19; [10]): 1 l/min (2×) and 4.7 l/min; O2 Day 10 (CoViD-19; [10]): 0 l/min (2×) and 5.5 l/min; dose delivered at the mouthpiece, of the tested dosages [2]: 90.2%; linearity of aerosol output rates at the mouthpiece over increasing numbers of breathing cycles ([2]; 35 to 400 μg/ml in 0.9% NaCl): excellent linearity; mass median aerodynamic diameter (MMD) per emitted particle ([2]; dissolved in 0.9% NaCl): 3.3-3.5 μm; number of particles <5 μm ([2]; dissolved in 0.9% NaCl): 85.70%; clinical course ([3]; 560 μg/day inhaled): gradual improvement; 6 min walking distances ([3]; 3 years later): 430-475 m; TAPSE ([3]; 3 years later, 17 mm before): 22 mm; 6 min walking test ([3]; 6 months later, 560 μg/day inhaled, 290 m before): 340 m; 6 min walking test ([3]; 12 months later, 560 μg/day inhaled): 410 m; systemic side effects (ARDS; some of the patients): hypotension; effect on ARDS (ARDS; trial discontinued): lack of positive effect; half-life in blood [4]: about 2 minutes; side effects found with systemic administration [5]: lacks the side effects; also recorded: lacks these side effects; T-cells expressing CD28 promoting inflammation (Patients with SARS-CoV-2): diminished; TNF release in the lung (Patients with SARS-CoV-2): diminished; regulatory T-cells dampening inflammation (Patients with SARS-CoV-2): increased; Arterio-alveolar oxygen difference (AaDO2) [6]: lower; need of oxygen supplementation [6]: lower need of oxygen supplementation; oxygenation (SpO2/FiO2 quotient) [6]: better oxygenation; rate of progression to ARDS [6]: reduced rate of progression to ARDS; respiratory rate [6]: decrease of respiratory rate; MMAD [7, 11]: 3.40 μm; released dosage at the mouthpiece as share of the nominal value [7, 11]: 80%; released dosage ([7]; 0.1 mg/ml in physiological saline, at the mouthpiece): 0.08 mg; MMAD per emitted particle ([7]; Example 11, 140 μg/ml, M-neb-dose+): 3.4 μm; dose delivered at the mouthpiece ([7]; Example 11, mouthpiece SK-211): 90%; time of aerosol release ([7]; corresponds to 30 strokes/breaths): 3 min
